In patent US9498483B2, “2,3,5-trisubstituted thiophene compounds and uses thereof” (priority 2010, dated 2016) one finds IC50 data, which are given here for 24 compounds.

For experiment [1], the system named is HCV replicon I389luc-ubi-neo/NS3-3′/ET in ET (Huh-lucubineo-ET) cells. As to the kind of experiment: Replicon assay (Biological Example 2), luciferase readout. It is filed as cell-based. To be noted: Hepatitis C virus. Summed up: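 EC50 values come from Hill fits of % inhibition of replicon-driven firefly luciferase, relative to no-compound wells. Compounds were serially diluted (10 points, 3-fold, 0.1 nM–50 μM final, 0.5% DMSO) onto ET replicon cells and read after 48 h.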

Experiment [2] deals with T1, HCV polymerase (Hepatitis C virus genotype 1b, UniProt Q9WMX2).
T1 construct: (His)6 (C); made in house; host or cells: XL-1 cells (E. coli, by own knowledge)
As to the kind of experiment: Polymerase assay of Biological Example 1 (IC50 values of Table 3). Particulars: IC50 values of Table 3, polymerase assay of Biological Example 1; read-out: NS5B-enzyme3. The format is biochemical.

[3] abbreviates: ET cells, luciferase activity 48 hours after compound.

Consider `COc1ccc(S(=O)(=O)N2CC(=O)N(c3cc(C#CC(C)(C)C)sc3C(=O)O)[C@H](C3CCCCC3)C2)cn1` [Compound 191, 3-[(R)-2-Cyclohexyl-4-(6-methoxy-pyridine-3-sulfonyl)-6-oxo-piperazin-1-yl]-5-(3,3-dimethyl-but-1-ynyl)-thiophene-2-carboxylic acid], for which the IC50 in experiment [1] (setting [3]) was at most 100 nM; in experiment [2], 1 nM.

For `Cc1cc(S(=O)(=O)N2CC(=O)N(c3cc(-c4ccccc4)sc3C(=O)O)[C@H](C3CCCCC3)C2)cnc1N1CCCC1` [Compound 172, 3-[(R)-2-Cyclohexyl-4-(5-methyl-6-pyrrolidin-1-yl-pyridine-3-sulfonyl)-6-oxo-piperazin-1-yl]-5-phenyl-thiophene-2-carboxylic acid], the figures for the IC50 in experiment [1] (setting [3]) and in experiment [2] were at most 100 nM and 1.2 nM, respectively.

As for `O=C(O)c1sc(-c2ccc(F)cc2)cc1N1C(=O)CN(S(=O)(=O)c2ccc(N3C[C@H]4C[C@@H]3CO4)nc2)C[C@H]1C1CCCCC1` [Compound 273, 3-{(R)-2-Cyclohexyl-4-[(1R,4R)-6-(2-oxa-5-aza-bicyclo[2.2.1]hept-5-yl)-pyridine-3-sulfonyl]-6-oxo-piperazin-1-yl}-5-(4-fluoro-phenyl)-thiophene-2-carboxylic acid], the IC50 in experiment [1] (setting [3]) is at most 100 nM; in experiment [2], 1 nM.

Turning to `COc1cc(S(=O)(=O)N2CC(=O)N(c3cc(C#CC(C)(C)C)sc3C(=O)O)[C@H](C3CCCCC3)C2)ccc1F` [Compound 283, 3-[(R)-2-Cyclohexyl-4-(4-fluoro-3-methoxy-benzenesulfonyl)-6-oxo-piperazin-1-yl]-5-(3,3-dimethyl-but-1-ynyl)-thiophene-2-carboxylic acid], the results for the IC50 in experiment [1] (setting [3]) and in experiment [2] were at most 100 nM and 4 nM, respectively.

Turning to `CCc1ccc(S(=O)(=O)N2CC(=O)N(c3cc(-c4ccc(C)cc4)sc3C(=O)O)[C@H](C3CCCCC3)C2)cn1` [Compound 304, 3-[(R)-2-Cyclohexyl-4-(6-ethyl-pyridine-3-sulfonyl)-6-oxo-piperazin-1-yl]-5-p-tolyl-thiophene-2-carboxylic acid], the IC50 was at most 100 nM in experiment [1] (setting [3]) and 5 nM in experiment [2].

Take `O=C(O)c1sc(-c2ccccc2)cc1N1C(=O)CN(S(=O)(=O)c2ccc(C(F)(F)F)cc2)CC1C1CCCCC1` (stereo not drawn) [Compound 54, 3-[2-Cyclohexyl-6-oxo-4-(4-trifluoromethyl-benzenesulfonyl)-piperazin-1-yl]-5-phenyl-thiophene-2-carboxylic acid]: the IC50 is 100 to 5000 nM in experiment [1] (between 100 nM and 5.0 uM); 18 nM in experiment [2].

Take `COC1CCN(c2ccc(S(=O)(=O)N3CC(=O)N(c4cc(-c5ccccc5)sc4C(=O)O)C(C4CCCCC4)C3)cn2)CC1` (stereo not drawn) [Compound 94, 3-[2-Cyclohexyl-4-(4-methoxy-3,4,5,6-tetrahydro-2H-[1,2′]bipyridinyl-5′-sulfonyl)-6-oxo-piperazin-1-yl]-5-phenyl-thiophene-2-carboxylic acid]: the IC50 in experiment [1] (setting [3]) is at most 100 nM; in experiment [2], 2 nM.

Consider `O=C(O)c1sc(-c2ccc(F)cc2)cc1N1C(=O)CN(S(=O)(=O)c2ccc(N3CCCC3)nc2)C[C@H]1C1CCCCC1` [Compound 232, 3-[(R)-2-Cyclohexyl-6-oxo-4-(6-pyrrolidin-1-yl-pyridine-3-sulfonyl)-piperazin-1-yl]-5-(4-fluoro-phenyl)-thiophene-2-carboxylic acid], for which the IC50 in experiment [1] (setting [3]) is at most 100 nM; in experiment [2] it was 1 nM.

On to `CC(C)(C)C#Cc1cc(N2C(=O)CNCC2C2CCCCC2)c(C(=O)O)s1` (stereo not drawn) [Compound 175, 3-(2-Cyclohexyl-6-oxo-piperazin-1-yl)-5-(3,3-dimethyl-but-1-ynyl)-thiophene-2-carboxylic acid], for which the IC50 in experiment [1] (setting [3]) is at least 5000 nM; in experiment [2], above 10000 nM.

Turning to `C[C@H]1CN(c2ccc(S(=O)(=O)N3CC(=O)N(c4cc(-c5ccccc5)sc4C(=O)O)[C@H](C4CCCCC4)C3)cn2)CCN1C(=O)OC(C)(C)C` [Compound 162, (S)-4-{5-[(R)-4-(2-Carboxy-5-phenyl-thiophen-3-yl)-3-cyclohexyl-5-oxo-piperazine-1-sulfonyl]-pyridin-2-yl}-2-methyl-piperazine-1-carboxylic acid tert-butyl ester], the IC50 in experiment [1] (setting [3]) was at most 100 nM; in experiment [2] it was 2 nM.

`Cc1ccc(-c2cc(N3C(=O)CN(S(=O)(=O)c4ccc(C(F)(F)F)nc4)C[C@H]3C3CCCCC3)c(C(=O)O)s2)cc1` [Compound 300, 3-[(R)-2-Cyclohexyl-6-oxo-4-(6-trifluoromethyl-pyridine-3-sulfonyl)-piperazin-1-yl]-5-p-tolyl-thiophene-2-carboxylic acid]: the IC50 was 100 to 5000 nM in experiment [1] (between 100 nM and 5.0 uM); 31 nM in experiment [2].

Take `C[C@@H]1CN(c2ccc(S(=O)(=O)N3CC(=O)N(c4cc(-c5ccccc5)sc4C(=O)O)[C@H](C4CCCCC4)C3)cn2)CCN1` [Compound 140, 3-{(R)-2-Cyclohexyl-4-[6-((R)-3-methyl-piperazin-1-yl)-pyridine-3-sulfonyl]-6-oxo-piperazin-1-yl}-5-phenyl-thiophene-2-carboxylic acid]: the IC50 in experiment [1] (setting [3]) is at most 100 nM; in experiment [2], 1 nM.

As to `CC1(N)CCN(c2ccc(S(=O)(=O)N3CC(=O)N(c4cc(-c5ccccc5)sc4C(=O)O)[C@H](C4CCCCC4)C3)cn2)CC1` [Compound 138, 3-[(R)-4-(4-Amino-4-methyl-3,4,5,6-tetrahydro-2H-[1,2′]bipyridinyl-5′-sulfonyl)-2-cyclohexyl-6-oxo-piperazin-1-yl]-5-phenyl-thiophene-2-carboxylic acid], the IC50 was at most 100 nM in experiment [1] (setting [3]) and 1 nM in experiment [2].

Consider `Cc1ccc(-c2cc(N3C(=O)CN(S(=O)(=O)c4ccc(C)nc4)C[C@H]3C3CCCCC3)c(C(=O)O)s2)cc1` [Compound 302, 3-[(R)-2-Cyclohexyl-4-(6-methyl-pyridine-3-sulfonyl)-6-oxo-piperazin-1-yl]-5-p-tolyl-thiophene-2-carboxylic acid], for which the IC50 in experiment [1] (setting [3]) was at most 100 nM; in experiment [2], 3 nM.

For `C[C@@H]1CCCN1c1ccc(S(=O)(=O)N2CC(=O)N(c3cc(-c4ccccc4)sc3C(=O)O)[C@@H](C3CCCCC3)C2)cn1` [Compound 131, 3-{(S)-2-Cyclohexyl-4-[6-((R)-2-methyl-pyrrolidin-1-yl)-pyridine-3-sulfonyl]-6-oxo-piperazin-1-yl}-5-phenyl-thiophene-2-carboxylic acid], the IC50 in experiment [1] (between 100 nM and 5.0 uM) was 100 to 5000 nM; in experiment [2], 261 nM.

In the case of `O=C(N[C@H]1CC(=O)N(c2cc(-c3ccccc3)sc2C(=O)O)[C@@H](C2CCCCC2)C1)c1ccccc1` [Compound 25, 3-((2R,4R)-4-Benzoylamino-2-cyclohexyl-6-oxo-piperidin-1-yl)-5-phenyl-thiophene-2-carboxylic acid], the IC50 in experiment [1] (setting [3]) was at least 5000 nM; in experiment [2], 173 nM.

As for `O=C(COc1ccccc1)N[C@@H]1CC(=O)N(c2cc(-c3ccccc3)sc2C(=O)O)[C@@H](C2CCCCC2)C1` [Compound 22, 3-[(2R,4S)-2-Cyclohexyl-6-oxo-4-(2-phenoxy-acetylamino)-piperidin-1-yl]-5-phenyl-thiophene-2-carboxylic acid], the values for the IC50 in experiment [1] (setting [3]) and in experiment [2] were at least 5000 nM and 20 nM, respectively.

Take `C[C@@H]1CCCN1c1ccc(S(=O)(=O)N2CC(=O)N(c3cc(-c4ccccc4)sc3C(=O)O)C(C3CCCCC3)C2)cn1` (stereo partly drawn) [Compound 118, 3-{2-Cyclohexyl-4-[6-((R)-2-methyl-pyrrolidin-1-yl)-pyridine-3-sulfonyl]-6-oxo-piperazin-1-yl}-5-phenyl-thiophene-2-carboxylic acid]: the results for the IC50 in experiment [1] (setting [3]) and in experiment [2] were at most 100 nM and 2 nM, respectively.

Turning to `CC(C)(C)C#Cc1cc(N2C(=O)[C@@H](CC(O)CO)OC[C@H]2C2CCCCC2)c(C(=O)O)s1` (stereo partly drawn) [Compound 10, 3-[(2R,5R)-5-Cyclohexyl-2-(2,3-dihydroxy-propyl)-3-oxo-morpholin-4-yl]-5-(3,3-dimethyl-but-1-ynyl)-thiophene-2-carboxylic acid], the results for the IC50 in experiment [1] (setting [3]) and in experiment [2] were at most 100 nM and 3 nM, respectively.

On to `O=C(O)c1sc(-c2ccccc2)cc1N1C(=O)CNC[C@H]1C1CCCCC1` [Compound 15, 3-((R)-2-Cyclohexyl-6-oxo-piperazin-1-yl)-5-phenyl-thiophene-2-carboxylic acid], for which the IC50 in experiment [1] (setting [3]) was at least 5000 nM; in experiment [2], 73.5 nM.

In the case of `O=C(O)c1sc(-c2cccc(F)c2)cc1N1C(=O)CCCC1C1CCCCC1` (stereo not drawn) [Compound 48, 3-(2-Cyclohexyl-6-oxo-piperidin-1-yl)-5-(3-fluoro-phenyl)-thiophene-2-carboxylic acid], the IC50 in experiment [1] (between 100 nM and 5.0 uM) is 100 to 5000 nM; in experiment [2], 187 nM.

With `O=C(O)c1sc(-c2ccccc2)cc1N1C(=O)CN(S(=O)(=O)c2ccc(N3CCN4CCCC4C3)nc2)C[C@H]1C1CCCCC1` (stereo partly drawn) [Compound 157, 3-{(R)-2-Cyclohexyl-4-[6-(hexahydro-pyrrolo[1,2-a]pyrazin-2-yl)-pyridine-3-sulfonyl]-6-oxo-piperazin-1-yl}-5-phenyl-thiophene-2-carboxylic acid], the IC50 is at most 100 nM in experiment [1] (setting [3]) and 1 nM in experiment [2].

Turning to `Cc1ccc(-c2cc(N3C(=O)CCCC3C3CCCCC3)c(C(=O)O)s2)cc1` (stereo not drawn) [Compound 71, 3-(2-Cyclohexyl-6-oxo-piperidin-1-yl)-5-p-tolyl-thiophene-2-carboxylic acid], the IC50 in experiment [1] (between 100 nM and 5.0 uM) was 100 to 5000 nM; in experiment [2], 52 nM.

As for `O=C(O)c1sc(-c2ccccc2)cc1N1C(=O)CN(S(=O)(=O)c2ccc(N(CCO)CCO)nc2)CC1C1CCCCC1` (stereo not drawn) [Compound 83, 3-(4-{6-[Bis-(2-hydroxy-ethyl)-amino]-pyridine-3-sulfonyl}-2-cyclohexyl-6-oxo-piperazin-1-yl)-5-phenyl-thiophene-2-carboxylic acid], the IC50 in experiment [1] (between 100 nM and 5.0 uM) is 100 to 5000 nM; in experiment [2], 3 nM.
